Test results published in ChEMBL document CHEMBL1148057, “1'-(2-Phenyl-ethylene)-ditryptophenaline, a new dimeric diketopiperazine from Aspergillus flavus” (J Nat Prod, 1994).
The source made the active and inactive calls. The rule behind the calls is not given here.

How the values were obtained:
Substance-P receptor [1] = target: T1, Substance-P receptor (Homo sapiens, UniProt P25103); test: Inhibition of substance P receptor
Substance-P receptor [2] = target: T1, Substance-P receptor; test: Inhibition of substance P receptor at 100 uM

T1 sequence (P25103 whole entry): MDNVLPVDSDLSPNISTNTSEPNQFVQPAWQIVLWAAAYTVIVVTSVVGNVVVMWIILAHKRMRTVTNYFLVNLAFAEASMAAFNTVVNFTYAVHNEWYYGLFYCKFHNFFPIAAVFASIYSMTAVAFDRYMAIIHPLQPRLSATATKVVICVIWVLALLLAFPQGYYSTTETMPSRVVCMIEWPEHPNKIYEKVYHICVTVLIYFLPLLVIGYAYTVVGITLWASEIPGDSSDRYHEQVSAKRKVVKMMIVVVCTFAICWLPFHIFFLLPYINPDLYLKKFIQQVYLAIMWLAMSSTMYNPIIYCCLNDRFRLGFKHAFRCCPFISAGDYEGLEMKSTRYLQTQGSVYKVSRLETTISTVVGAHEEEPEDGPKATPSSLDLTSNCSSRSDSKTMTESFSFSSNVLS

Row | Activity (Substance-P receptor [2]) | SMILES | IC50 (Substance-P receptor [1])
1 |  | CN1C(=O)[C@@H]2C[C@@]3([C@@]45C[C@H]6C(=O)N(C)[C@@H](Cc7ccccc7)C(=O)N6[C@@H]4Nc4ccccc45)c4ccccc4N[C@H]3N2C(=O)[C@@H]1Cc1ccccc1 [DITRYPTOPHENALINE] | 12 µM
2 | inactive | CN1C(=O)[C@@H]2C[C@@]3([C@@]45C[C@H]6C(=O)N(C)[C@@H](Cc7ccccc7)C(=O)N6[C@@H]4N(/C=C/c4ccccc4)c4ccccc45)c4ccccc4N[C@H]3N2C(=O)[C@@H]1Cc1ccccc1 | 
3 |  | O=C1N[C@@H](Cc2ccccc2)C(=O)N2[C@H]3Nc4ccccc4[C@@]3([C@]34C[C@H]5C(=O)N[C@@H](Cc6ccccc6)C(=O)N5[C@H]3Nc3ccccc34)C[C@@H]12 | 0.23 µM
